How the values were obtained:
[1] = plasma pharmacokinetics of PG545 (LC-MS/MS) in LL/2 tumour-bearing mice; format: in vivo; details: for AUC0−t / Cmax / Tmax / t½: plasma
Procedure: (Applied Biosystems) preceded by a Spark Symbiosis Direct On-line Solid Phase Extraction system. Briefly, using a deep-well 96-well plate, 100 µL plasma was mixed with 10 µL standard solution (or water for unknowns) plus 10 µL internal standard solution (PG562 at 100 µg/mL (deionised water for double blank)).This was then mixed for at least 1 min (Ratek Platform Shaker) and incubated at room temperature for 20 mins prior to addition of 25 µL SDS solution (10 mg SDS in 1 mL deionised water) + 75 µL CHAPS solution (50 mg CHAPS in 1 mL deionised water) and 50 µL Proteinase K solution (10 mg Proteinase K in 1 mL 5 mM CaCl2). Following a mixing step this was incubated at 37°C for 2.5 hours prior to addition of 250 µL deionised water and placed into the Spark Symbiosis system.
The Tmax and Cmax on each sampling day were determined for each dose level by visual inspection of the mean data. The AUC0-t was calculated using the trapezoidal method and the plasma concentration t½ was estimated based on linear regression of the natural log of the plasma concentration that constituted the terminal phase of the concentration-time

[2] = body weight loss in tumour-bearing mice; format: in vivo; details: for body weight loss at the end of the study: MDA-MB-231 model
[3] = test system: LL/2 tumours and lung metastases; experiment: syngeneic Lewis Lung Carcinoma (LL/2) tumour growth and spontaneous metastasis model; format: in vivo, mice
Procedure: In the orthotopic Hep3b2.1-7 human liver cancer model, treatment of mice (n=10) began 14 days after inoculation of 2.5 × 10^6 cells. […] To initiate tumour xenografts, MDA-MB-231, PC3, Cal27 and HepG2 cells were injected s.c. into nude mice (n=8) at 4, 5, 2 and 2 × 10^7 cells ml^−1, respectively. […] In the B16F0 lung metastasis model, 2 × 10^5 cells were injected via the tail vein of C57Bl6 mice (n=8). […] Surface lung macrometastases were counted for each group (n=9) upon study termination. In the intrasplenic HT-29 xenograft model, 1 × 10^6 cells in 100 μl were injected into the spleen. […] Solid tumours were measured in two dimensions (length and width) and the tumour volume (cm^3) was calculated using the equation: V=length × width^2 × π/6. The anti-tumour activity was expressed as percent tumour growth inhibition (%TGI). Further details are available in Supplementary Methods. […]
efficacy/PK study) using either a once or twice weekly dosing schedule (see figure legends for dose schedules in each study) for up to three weeks. […]
In the LL/2 mouse model, treatment of mice commenced on the day of inoculation (Day 0). Mice inoculated subcutaneously were treated with either Vehicle Control […]
once weekly or Sorafenib (60mg/kg, once daily, p.o.). The treatments were continued for three weeks. The lungs were excised from all mice at the time of culling for metastasis […]
count determination. […]
In relevant models, solid tumours were measured in two dimensions (length and width) and the tumour volume (mm3) calculated using the equation V = length × width2 × π/6.The anti-tumour activity was assessed by the comparison of the mean tumour volume of the treated groups to the mean tumour volume of the control group and expressed as the percent Tumour Growth Inhibition (TGI) using the equation:
%TGI = (1-((VendPG545 - VstartPG545) / (VendControl - VstartControl)))*100 VendPG545 = Ending Tumour Volume of PG545-treated animal
VstartPG545 = Starting Tumour Volume of PG545-treated animal
VendControl = Ending Tumour Volume of Control animal
VstartControl = Starting Tumour Volume of Control animal […]
After collection, 0.2 mL of […]
whole blood was added to a glass scintillation vial to which 1 mL Solvable was added.
Samples were incubated for one hour at 55-60°C. 0.1 mL of 0.1 M EDTA-di-sodium salt solution and 0.3 mL to 0.5 mL of 30% hydrogen peroxide in 0.1 mL aliquots were added to the sample. Samples were gently agitated between additions to allow reaction foaming to subside. Samples were incubated for 30 minutes at room temperature. Vials were capped tightly and incubated again at 55 – 60 °C fo r 1 hour. Samples were cooled to room temperature and 15 mL of ULTIMA Gold added.
For tumour samples, 100 mg of tissue was placed in a 20 mL glass scintillation vial and 2 mL of Solvable added. The samples were incubated at 50 - 60 °C for 1 hour with occasional swirling. Samples were cooled to room temperature and for tumours, 0.3 mL of 30% hydrogen peroxide in three aliquots of 0.1 mL were added. The samples were again incubated at 50 - 60 °C for 1 hour with occasional swirling. Tumours samples were […]

CC(C)CCC[C@@H](C)[C@H]1CCC2C3CCC4C[C@@H](O[C@@H]5O[C@H](COS(=O)(=O)[O-])[C@@H](O[C@H]6O[C@H](COS(=O)(=O)[O-])[C@@H](O[C@H]7O[C@H](COS(=O)(=O)[O-])[C@@H](O[C@H]8O[C@H](COS(=O)(=O)[O-])[C@@H](OS(=O)(=O)[O-])[C@H](OS(=O)(=O)[O-])[C@H]8OS(=O)(=O)[O-])[C@H](OS(=O)(=O)[O-])[C@H]7OS(=O)(=O)[O-])[C@H](OS(=O)(=O)[O-])[C@H]6OS(=O)(=O)[O-])[C@H](OS(=O)(=O)[O-])[C@H]5OS(=O)(=O)[O-])CC[C@]4(C)C3CC[C@@]21C.[Na+].[Na+].[Na+].[Na+].[Na+].[Na+].[Na+].[Na+].[Na+].[Na+].[Na+].[Na+].[Na+] (stereo partly shown) [PG545]
start of efficacious plasma concentration range ([1]; LL/2 model): ~20 µg/mL
AUC0−t ([1]; week 1, 20 mg kg^−1): 687 µg·h/mL
Cmax ([1]; week 1, 20 mg kg^−1): 23 µg/mL
Tmax ([1]; week 1, 20 mg kg^−1): 5 h
t½ ([1]; week 1, 20 mg kg^−1): 38 h
AUC0−t ([1]; week 1, 40 mg kg^−1): 1713 µg·h/mL
Cmax ([1]; week 1, 40 mg kg^−1): 55 µg/mL
Tmax ([1]; week 1, 40 mg kg^−1): 3 h
t½ ([1]; week 1, 40 mg kg^−1): 32 h
AUC0−t ([1]; week 1, 60 mg kg^−1): 2666 µg·h/mL
Cmax ([1]; week 1, 60 mg kg^−1): 79 µg/mL
Tmax ([1]; week 1, 60 mg kg^−1): 5 h
t½ ([1]; week 1, 60 mg kg^−1): 39 h
AUC0−t ([1]; week 2, 20 mg kg^−1): 663 µg·h/mL
Cmax ([1]; week 2, 20 mg kg^−1): 27 µg/mL
Tmax ([1]; week 2, 20 mg kg^−1): 4 h
t½ ([1]; week 2, 20 mg kg^−1): 31 h
AUC0−t ([1]; week 2, 40 mg kg^−1): 1781 µg·h/mL
Cmax ([1]; week 2, 40 mg kg^−1): 71 µg/mL
Tmax ([1]; week 2, 40 mg kg^−1): 4 h
t½ ([1]; week 2, 40 mg kg^−1): 28 h
AUC0−t ([1]; week 2, 60 mg kg^−1): 3056 µg·h/mL
Cmax ([1]; week 2, 60 mg kg^−1): 94 µg/mL
Tmax ([1]; week 2, 60 mg kg^−1): 4 h
t½ ([1]; week 2, 60 mg kg^−1): 35 h
body weight loss nadir ([2]; B16 model): 8%
body weight loss nadir ([2]; HT-29 model): 12%
body weight loss ([2]; Hep3b2.1-7 model, 20 mg kg^−1 followed by twice-weekly 10 mg kg^−1): 4%
body weight loss ([2]; Hep3b2.1-7 model, 20 mg kg^−1 twice-weekly): 9%
body weight nadir (loss) ([2]; LL/2 model): 5%
body weight loss at the end of the study ([2]; 20 mg kg^−1 once-weekly): 4%
body weight loss at the end of the study ([2]; 20 mg kg^−1 twice-weekly): 6%
body weight loss at the end of the study ([2]; 30 mg kg^−1 once-weekly): 11%
body weight loss at the end of the study ([2]; 30 mg kg^−1 twice-weekly): 10%
body weight loss ([2]; PC3 model, 20 mg kg^−1 once-weekly): 6%
body weight loss ([2]; PC3 model, 20 mg kg^−1 twice-weekly): 16%
TGI (primary tumour) ([3]; 20 mg kg^−1 once-weekly): 46%
TGI / inhibition (lung metastases) ([3]; 20 mg kg^−1 once-weekly): 96%
TGI (lung metastases) ([3]; 20 mg kg^−1 single dose): 67%
TGI (primary tumour) ([3]; 20 mg kg^−1 single dose): 15%
TGI (lung metastases) ([3]; 40 mg kg^−1 once-weekly): 67%
TGI (primary tumour) ([3]; 40 mg kg^−1 once-weekly): 57%
TGI (primary tumour) ([3]; 40 mg kg^−1 single dose): 33%

— publication PMC3049593 (British Journal of Cancer, 2011)
